Laboratory results as given in patent publication US20100184802A1, “Bicycloheteroaryl Compounds as P2X7 Modulators and Uses Thereof” (priority 2006, published 2010).

Key:
[1] = biological target: T1, P2X7 receptor (IL-1β release from THP-1 cells) (Homo sapiens, UniProt Q99572); assay: IL-1β release assay in differentiated THP-1 cells stimulated with BzATP (Example 9); format: cell-based; details: for inhibition at 0.3 µM: 0.3 μM concentration, BzATP 250 uM, read-out: IL-1β % Inhib. @ 0.3 or 0.1 μM; for IC50: released IL-1β as in Example 9, four parameter logistic fit
T1 construct: host or cells: THP-1 cells differentiated with LPS and IFN-γ
T1 sequence (Q99572 1-595): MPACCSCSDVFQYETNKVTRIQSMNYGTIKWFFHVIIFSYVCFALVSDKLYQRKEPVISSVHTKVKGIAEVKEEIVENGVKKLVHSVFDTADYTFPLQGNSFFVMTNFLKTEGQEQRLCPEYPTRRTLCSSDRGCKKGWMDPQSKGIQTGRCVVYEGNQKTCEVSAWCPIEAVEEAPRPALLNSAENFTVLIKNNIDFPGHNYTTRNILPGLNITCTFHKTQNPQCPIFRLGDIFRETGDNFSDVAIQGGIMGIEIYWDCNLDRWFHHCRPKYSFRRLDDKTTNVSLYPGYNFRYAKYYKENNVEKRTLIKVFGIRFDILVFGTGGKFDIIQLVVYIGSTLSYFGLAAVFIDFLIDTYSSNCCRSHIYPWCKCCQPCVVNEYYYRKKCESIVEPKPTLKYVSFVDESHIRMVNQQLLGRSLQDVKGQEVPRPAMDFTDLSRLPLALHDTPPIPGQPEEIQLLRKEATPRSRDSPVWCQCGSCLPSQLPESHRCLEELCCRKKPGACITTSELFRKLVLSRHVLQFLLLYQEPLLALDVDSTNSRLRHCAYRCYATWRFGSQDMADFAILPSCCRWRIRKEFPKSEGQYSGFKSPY
Procedure: The cells are then pretreated for 30 minutes with the compound of interest at the appropriate concentration in RPMI media containing 100 IU/mL penicillin, 100 ug/mL streptomycin. […] 30 uL of cell supernatant is then collected and IL-1β levels determined via ELISA (R&D systems Cat. #HSLB50) according to manufacturer's recommendations using the Tecan Safire plate reader. Background adjusted IL-1β levels of drug treated and non-treated cells are used to calculate the percent inhibition.
The compounds set forth in Table 1 were tested for activity in a cellular model as described herein. […] Measurements were made and IC50 values, presented in Table 2, below, were determined by fitting the data to a four parameter logistic equation using GraphPad Prism software (GraphPad Software, Inc). The equation may be expressed by the following formula:
Y=Bottom+(Top−Bottom)/(1+10̂((Log EC50−X)*HillSlope))
Where X is the logarithm of concentration, Y is the response and Y starts at Bottom and goes to Top with a sigmoid shape.

[2] = Half-life in human liver microsomes (HLM); format: in vitro ADME; details: human liver microsomes (HLM, HL101); human liver microsomes 0.78 mg/mL, 1 μM compound, NADPH, pH 7.4, 37° C.
Procedure: Test compounds (1 μM) are incubated with 3.3 mM MgCl2 and 0.78 mg/mL HLM (HL101) in 100 mM potassium phosphate buffer (pH 7.4) at 37° C. on the 96-deep well plate. The reaction mixture is split into two groups, a non-P450 and a P450 group. NADPH is only added to the reaction mixture of the P450 group. An aliquot of samples of P450 group is collected at 0, 10, 30, and 60 min time point, where 0 min time point indicated the time when NADPH is added into the reaction mixture of P450 group. […] Collected aliquots are extracted with acetonitrile solution containing an internal standard. […] The compound concentration in supernatant is measured by LC/MS/MS system.
The half-life value is obtained by plotting the natural logarithm of the peak area ratio of compounds/internal standard versus time. The slope of the line of best fit through the points yields the rate of metabolism (k). This is converted to a half-life value using following equations:

[3] = Pharmacokinetic evaluation following intravenous and oral administration in rats; format: in vivo; details: rat, plasma; male Sprague-Dawley rats; PO 1 to 5 mg/kg vs IV, AUCinf dose-normalized; mean % F
Procedure: Male Sprague-Dawley rats are acclimatized for at least 24 hours prior to experiment initiation. During the acclimation period, all animals receive food and water ad libitum. However, food but not water is removed from the animals' cages at least 12 hours before initiation of the experiment. During the first 3 hours of experimentation, the animals receive only water ad libitum. At least three animals each are tested for intravenous and oral dosage. For intravenous formulation, compounds were dissolved (0.25 to 1 mg/mL) in a mixture of 3% dimethyl sulfoxide, 40% PEG 400 and the rest percentage of 40% Captisol in water (w/v). The animals are weighed before dosing. The determined body weight is used to calculate the dose volume for each animal.
Dose volume (mL/kg)=1 mg/kg/formulation concentration (mg/mL)
In instances where the formulation concentrations were less than 0.5 mg/mL, the dosing volume is about 2 mL/kg.
For oral formulation, compounds of this invention are suspended (0.5 to 0.75 mg/mL) in a mixture of 5% of 10% Tween 80 in water (v/v) and 95% of 0.5% methyl cellulose in water (w/v). PO rats are typically dosed through oral gavage following the same dose volume formula as IV to achieve a dose level of 1 to 5 mg/kg. For IV dosing, blood samples are collected (using a pre-heparinized syringe) via the jugular vein catheter at 2, 5, 15, 30, 60, 120, 180, 300, 480, and 1440 minutes post dosing. For PO dosing, blood samples are collected (using a pre-heparinized syringe) via the jugular vein catheter before dosing and at 5, 15, 30, 60, 120, 180, 300, 480, and 1440 minutes post dosing. About 250 uL of blood is obtained at each time point from the animal. Equal volumes of 0.9% normal saline are replaced to prevent dehydration. The whole blood samples are maintained on ice until centrifugation. Blood samples are then centrifuged at 14,000 rpm for 10 minutes at 4° C. and the upper plasma layer transferred into a clean vial and stored at −80° C. The resulting plasma samples are then analyzed by liquid chromatography-tandem mass spectrometry. Following the measurement of plasma samples and dosing solutions, plasma concentration-time curve is plotted. Plasma exposure is calculated as the area under the concentration-time curve extrapolated to time infinite (AUCinf). The AUCinf is averaged and the oral bioavailability (% F) for individual animal is calculated as:
AUCinf(PO)/AUCinf(IV), normalized to their respective dose levels.
The % F is reported as the mean % F of all animals dosed orally with the compound of the invention at the specified level (Table 4).

Compound	inhibition at 0.3 µM [1] [%]	IC50 [1] [nM]	half-life at 1 μM [2] [min]	bioavailability [3] [%]
O=C(CC1(O)CCCCCC1)Nc1cccc2c(=O)n(CCO)ccc12 [Compound 520]	51 to 75	165	72.6	26 to 50
CC(C)[C@H](C(N)=O)n1ccc2c(NC(=O)CC34CC5CC(C)(CC(C)(C5)C3)C4)cccc2c1=O [Compound 529]	26 to 50	4.65	39	0 to 25
C[C@H](C(N)=O)n1ccc2c(NC(=O)CC3CCCCCC3)cccc2c1=O [Compound 558]	> 76	23.8	61.2	0 to 25
O=C(CC1CCCCCC1)Nc1cccc2c(=O)n(CCO)ccc12 [Compound 544]	> 76	27.8	20.4	0 to 25
C[C@H](CO)n1ccc2c(NC(=O)CC3CCCCCC3)cccc2c1=O [Compound 606, 2-Cycloheptyl-N-[2-((R)-2-hydroxy-1-methyl-ethyl)-1-oxo-1,2-dihydro-isoquinolin-5-yl]-acetamide]	> 76	4.59	23.4	0 to 25
C[C@H](C(N)=O)n1ccc2c(NC(=O)CC3(O)CCCCCC3)cccc2c1=O [Compound 555]	> 76	41.3	45.6	26 to 50
CC(C(=O)Nc1cccc2c(=O)n([C@H](C)C(N)=O)ccc12)C1CCCCCC1 (stereo partly shown) [Compound 600]	> 76	12.2	15	0 to 25
O=C(CC12CC3CC(CC(C3)C1)C2)Nc1cccc2c1CCN(C(CO)CO)C2=O [Compound 508]	> 76	0.779	49.8	0 to 25
C[C@H](CO)N1CCc2c(NC(=O)CC34CC5CC(CC(C5)C3)C4)cccc2C1=O [Compound 526]	> 76	1	37.8	0 to 25
CC12CC3CC(C)(C1)CC(CC(=O)Nc1cccc4c(=O)n(CC5CCNCC5)ccc14)(C3)C2 [Compound 518, 2-(3,5-Dimethyl-adamantan-1-yl)-N-(1-oxo-2-piperidin-4-ylmethyl-1,2-dihydro-isoquinolin-5-yl)-acetamide]	> 76	60.1	324	0 to 25

Further lines, results first:

inhibition at 0.3 µM [1] [%]	IC50 [1] [nM]	half-life at 1 μM [2] [min]	bioavailability [3] [%]	Compound
> 76	1.09	42	0 to 25	NC(=O)[C@@H](CO)n1ccc2c(NC(=O)CC34CC5CC(CC(C5)C3)C4)cccc2c1=O [Compound 599, (R)-2-[5-(2-Adamantan-1-yl-acetylamino)-1-oxo-1H-isoquinolin-2-yl]-3-hydroxy-propionamide]
> 76	0.365	16.2	0 to 25	C[C@H](C(N)=O)n1ccc2c(NC(=O)CC34CC5CC(CC(C5)C3)C4)cccc2c1=O [Compound 559]
	1.21	40.8	26 to 50	C[C@@H](C(N)=O)n1ccc2c(NC(=O)CC34CC5CC(CC(C5)C3)C4)cccc2c1=O [Compound 572, (S)-2-[5-(2-Adamantan-1-yl-acetylamino)-1-oxo-1H-isoquinolin-2-yl]-propionamide]
> 76	6.17	22.8	0 to 25	O=C(CC12CC3CC(CC(C3)C1)C2)Nc1cccc2c(=O)n(CC3CCNCC3)ccc12 [Compound 501]
26 to 50	4.37	34.8	0 to 25	CC(C(N)=O)n1ccc2c(NC(=O)CC34CC5CC(CC(C5)C3)C4)cccc2c1=O (stereo not shown) [Compound 530]
> 76	9.08	22.2	0 to 25	C[C@H](C(=O)O)n1ccc2c(NC(=O)CC34CC5CC(CC(C5)C3)C4)cccc2c1=O [Compound 601]
> 76	0.198	34.8	0 to 25	O=C(CC12CC3CC(CC(C3)C1)C2)Nc1cccc2c(=O)n(C(CO)CO)ccc12 [Compound 507]
	0.088	45.6	0 to 25	C[C@H](C(N)=O)n1ccc2c(NC(=O)CC34CC5CC(CC(C5)C3)C4)c(Cl)ccc2c1=O [Compound 602, (R)-2-[5-(2-Adamantan-1-yl-acetylamino)-6-chloro-1-oxo-1H-isoquinolin-2-yl]-propionamide]
